Measurements reported in patent US6818215B2, “Antibodies to senescent cell-derived inhibiters of DNA synthesis” (priority 1991, dated 2004).

Columns and labels:
[1] = test system: SV40 transformed cell line GM639; assay: Transient transfection of SDI-1, inhibition of DNA synthesis; format: cell-based
Excerpt: (§1) This provides further evidence that SDI-1 behaves like the inhibitor previously detected in senescent cells.

SUSMI = assay: as above; format: cell-based
Excerpt: as §1

Burkitt Lymphoma (Daudi) = assay: GST-SDI-1 fusion protein, thymidine incorporation; format: cell-based, human; conditions: 30 μg/ml
Description: (§2) As indicated above, SDI-1 has the capacity to suppress the proliferation of tumor cells. […] In the experiment, 5×10^3 cells were plated overnight at 37° C. (only for adherent cells) and then incubated with the SDI fusion protein. After 48 hours at 37° C., cells were pulsed with thymidine for 24 hours and then harvested. The results of this experiment are shown in Table 8; the thymidine incorporation by untreated cells was expressed as 100%. all determinations were made in quadruplicate.

[2] = test system: Lung adenocarcinoma (A-549); assay: GST-SDI-1 fusion protein, thymidine incorporation; format: cell-based, human
Description: as §2

Breast (T-47 D) = assay: GST-SDI-1 fusion protein, thymidine incorporation; format: cell-based, human
Description: as §2

Glial (U-251) = assay: GST-SDI-1 fusion protein, thymidine incorporation; format: cell-based, human
Description: as §2

Hepatocellular (Hep G2) = assay: GST-SDI-1 fusion protein, thymidine incorporation; format: cell-based, human
Description: as §2

[3] = test system: hamster dihydrofolate reductase (DHFR) promoter; assay: CAT reporter transcription assay, DHFR-CAT; format: cell-based
Description: (§3) The effect of the human SDI-1 on transcription driven by two E2F-responsive promoters was determined. Proliferating A31 cells were transfected with an SDI-1 expression vector in which the SDI-1 cDNA was driven by the strong constitutive cytomegalovirus early promoter (CMV) together with a reporter vector in which the chloramphenicol acetyltransferase (CAT) gene was driven by either the hamster dihydrofolate reductase (DHFR) promoter or the human cdc2 promoter (cdc2-CAT). A31 cells are Balb/c murine 3T3 fibroblasts whose origin and growth properties have been described (Lu, K. et al., Molec. Cell. Biol. 9:3411-3417 (1989); Dimri, G. P et al., J. Biol. Chem. 269:16180-16186 (1994), herein incorporated by reference). Cells were transfected with 2 μg of expression vectors, reporters vectors (for transactivation) and the CMV-β-gal identification/normalization vector using Lipofectamine (Gibco-BRL), as described by Dimri, G. P et al. (J. Biol. Chem. 269:16180-16186 (1994), herein incorporated by reference), The vector backbone was added to the mixture as needed to equalize the amount of transfected DNA. Seventy-two hours later, the cells were lysed and assayed for chloramphenicol acetyl transferase (CAT) and β-galactosidase activity. Both DHFR and cdc2 were expressed by proliferating cells, largely due to E2F-mediated transcription that is dependent on E2F binding sites in the 5′ regulatory regions of these genes (Slansky, J. E. et al., Molec. Cell. Biol. 13:1610-1618 (1993); Dalton, S., EMBO J. 11:1797-1804 (1992)).
(§4) The SDI-1 expression vector, CMV-SDI-1, but not the control vector, suppressed CAT activity driven by either the DHFR or cdc2 promoter (Table 16). CMV-SDI-1 was maximally inhibitory at above 2 μg of DNA under the assay conditions used. CAT activity in Table 16 is reported in counts per minute, normalized to the β-galactosidase activity. At this concentration, CMV-SDI-1 inhibited the DHFR promoter, which contains two strong E2F binding sites (Slansky, J. E. et al., Molec. Cell. Biol. 13:1610-1618 (1993)), somewhat more strongly than the cdc2 promoter, which contains a single E2F binding site (Dalton, S., EMBO J. 11:1797-1804 (1992)) (50-70% inhibition vs 40-50% inhibition). This difference in sensitivity is consistent with the finding that the DHFR promoter is somewhat more sensitive than the cdc2 promoter to stimulation by E2F1, a component of E2F (Dimri, G. P et al., J. Biol. Chem. 269:16180-16186 (1994)). At the concentrations used here, CMV-SDI-1 inhibited DHFR-CAT and cdc2-CAT expression to approximately the same extent that it inhibited DNA replication.

Fibroblasts (L-929) = assay: GST-SDI-1 fusion protein, thymidine incorporation; format: cell-based, Murine; conditions: 50 μg/ml
Description: as §2

c-fos promoter = assay: CAT reporter transcription assay, fos-CAT; format: cell-based; conditions: SDI-1 2.0 μg
Description: as §3
In sharp contrast to the response of the DHFR and cdc2 promoters, CMV-SDI-1 had little or no effect on reporter activity driven by either the SV 40 early promoter (SV-CAT or the c-fos promoter (fos-CAT) (Table 16). Neither the SV40 early genes nor c-fos has been reported to be E2F-responsive.

WI38 immortal cell line = assay: Transient transfection of SDI-1, inhibition of DNA synthesis; format: cell-based, human
Excerpt: as §1

HeLa cells = assay: as above; format: cell-based, human
Excerpt: as §1

[4] = test system: neonatal foreskin cell line (CSC303); assay: as above; format: cell-based, human
Excerpt: as §1

human cdc2 promoter = assay: CAT reporter transcription assay, cdc2-CAT; format: cell-based
Description: as §3, §4

SDI-1: senescent cell derived inhibitor of DNA synthesis, 164 amino acid protein, SEQ ID NO:2
inhibition (DNA synthesis) [1]: < 20% | inhibition (DNA synthesis) (SUSMI): 40% | Relative Cell (% of Control) (Burkitt Lymphoma (Daudi)): 3 ± 0 % of Control | Relative Cell (% of Control) ([2]; 30 μg/ml): 40 ± 1 % of Control | Relative Cell (% of Control) ([2]; 50 μg/ml): 25 ± 3 % of Control | Relative Cell (% of Control) (Breast (T-47 D); 30 μg/ml): 2 ± 0 % of Control | Relative Cell (% of Control) (Breast (T-47 D); 50 μg/ml): 2 ± 0 % of Control | Relative Cell (% of Control) (Glial (U-251); 30 μg/ml): 66 ± 4 % of Control | Relative Cell (% of Control) (Glial (U-251); 50 μg/ml): 35 ± 2 % of Control | Relative Cell (% of Control) (Hepatocellular (Hep G2); 30 μg/ml): 21 ± 3 % of Control | Relative Cell (% of Control) (Hepatocellular (Hep G2); 50 μg/ml): 12 ± 2 % of Control | % Activity ([3]; SDI-1 0.2 μg, A31 cells): 97% | % Inhibition ([3]; SDI-1 0.2 μg, A31 cells): 4% | Normalized CAT Activity ([3]; SDI-1 0.2 μg, A31 cells): 9155 counts per minute | % Activity ([3]; SDI-1 1.0 μg): 87% | % Inhibition ([3]; SDI-1 1.0 μg): 13% | Normalized CAT Activity ([3]; SDI-1 1.0 μg): 8196 counts per minute | % Activity ([3]; SDI-1 2.0 μg): 28% | % Inhibition ([3]; SDI-1 2.0 μg): 72% | Normalized CAT Activity ([3]; SDI-1 2.0 μg): 2613 counts per minute | % Activity ([3]; SDI-1 4.0 μg): 19% | % Inhibition ([3]; SDI-1 4.0 μg): 81% | Normalized CAT Activity ([3]; SDI-1 4.0 μg): 1757 counts per minute | Relative Cell (% of Control) (Fibroblasts (L-929)): 4 ± 1 % of Control | % Activity (c-fos promoter): 96% | % Inhibition (c-fos promoter): 4% | Normalized CAT Activity (c-fos promoter): 16273 counts per minute | inhibition (DNA synthesis) (WI38 immortal cell line): 40-50% | inhibition (DNA synthesis) (HeLa cells): < 20% | inhibition (DNA synthesis) [4]: 40-50% | Transcription (Normalized) % Activity (human cdc2 promoter; A31 cells (Table 17)): 52% | Transcription (Normalized) % Inhibition (human cdc2 promoter; A31 cells (Table 17)): 48% | % Activity (human cdc2 promoter; SDI-1 1.0 μg): 50% | % Inhibition (human cdc2 promoter; SDI-1 1.0 μg): 50% | Normalized CAT Activity (human cdc2 promoter; SDI-1 1.0 μg): 1664 counts per minute | % Activity (human cdc2 promoter; SDI-1 2.0 μg): 60% | % Inhibition (human cdc2 promoter; SDI-1 2.0 μg): 40% | Normalized CAT Activity (human cdc2 promoter; SDI-1 2.0 μg): 2000 counts per minute | % Activity (human cdc2 promoter; SDI-1 4.0 μg): 61% | % Inhibition (human cdc2 promoter; SDI-1 4.0 μg): 39% | Normalized CAT Activity (human cdc2 promoter; SDI-1 4.0 μg): 2008 counts per minute
